# Columns and labels:
# psmα3 = assay: Real-time RT-qPCR of biofilm-associated genes; assay type: cell-based, Staphylococcus aureus
# Cytotoxicity assay (MTT) = conditions: African green monkey, Vero cell monolayers
# Description: (§1) Plates were incubated for 1 h, the supernatant again removed, and 200 µL dimethyl sulfoxide (DMSO) were added to each well to dissolve the formazan crystals for 10 min. Absorbance was measured at 570 nm using an ELISA reader (Thermo Plate, TP-READER, Thermo Fisher Scientific). […] The selectivity index (SI) was calculated as follows: SI (µg/mL) = CC50/MIC[17]. Three independent experiments were performed in triplicate. Controls were performed using 2% (v/v) DMSO only.
# in vitro = conditions: human, pH 7.4
# Description: (§2) Erythrocytes were collected from three human volunteers in a citrate tube and washed three times (3×) with PBS (pH 7.4). All derivatives were incubated with the PBS-erythrocyte suspension for 3 h at 37 °C. The hemolysis with the release of hemoglobin was quantified by the spectrophotometric reading of the supernatant at 545 nm. Hemolysis less than 10% represented hemocompatibility and non-toxicity against erythrocyte membranes. For the positive control, the human erythrocytes were lysed with 1% (v/v) Triton X-100. The negative control was performed with 1% (v/v) DMSO only (final concentration). […] All methods were carried out in accordance with relevant guidelines and regulations. In addition, informed consent was obtained from all volunteers. Three independent experiments were performed in triplicate.
# sarA = assay: Real-time RT-qPCR of global regulators; assay type: cell-based, Staphylococcus aureus
# [1] = test system: MRSA ST239-SCCmecIII (BMB9393); assay: Disk diffusion test; assay type: cell-based, Staphylococcus aureus
# MRSA strain BMB9393 = assay: Autolytic system: extracellular DNA (eDNA) in supernatant; assay type: cell-based, Staphylococcus aureus; conditions: 1/4MIC, 7b stated relative to 7c
# [2] = test system: MRSA strain CR15-071 (USA100) cells persistent to vancomycin; assay: Vancomycin-persistent cells, high bacterial load on TSA plates; assay type: cell-based, Staphylococcus aureus; conditions: 1MIC derivative (128 µg/mL) plus vancomycin 4MIC (8 µg/mL), ~10^9 CFU/ml
# Description: For this test, we choose the MRSA strain CR15-071 representative of the ST5-SCCmecII lineage (NY/Japan-USA100 clone), since this MRSA has replaced the ST239-SCCmecIII (the Brazilian clone) in this country, and is now the most frequent MRSA lineage in Brazilian hospitals. […]. The plates were incubated at 37 °C/24 h before being examined. […]. Bacterial growth was determined by removing persistent cells from the plates and determining UFC/ml. Controls were also performed using 2% (v/v) DMSO only. Three independent experiments were performed in triplicate.
# Vero cell line = assay: Cytotoxicity assay (MTT); conditions: Vero cells, 24 h, MTT
# Description: as §1
# human erythrocytes = assay: Hemocompatibility assay; conditions: highest concentration evaluated (300 µg/mL), 3 h at 37 °C
# Description: as §2
SMILES,Reduction of psmα3 expression (psmα3) [%],CC50 at 24 h (Cytotoxicity assay (MTT)) [µg/mL],"hemolysis at 3 h, 300 µg/mL (in vitro) [%]",Reduction of sarA gene expression (sarA),Inhibition zone [1] [mm],Amount of eDNA in bacterial supernatant (cell lysis) (MRSA strain BMB9393),Reduction in the total of vancomycin-persistent cells [2],CC50 (Vero cell line) [µg/mL],"Hemolysis, maximum values (human erythrocytes) [%]"
"CCOCNC1=CC(=O)c2ccccc2C1=O [7b, 2-(ethoxymethyl)-amino-1,4-naphthoquinone]",97.75 ± 0.6,219.9 ± 1.87,2.7 ± 0.3,65.5 ± 6.0%,10±1.0,even higher (about two-fold),complete inhibition of persistent cells,,
"C#CCOCNC1=CC(=O)c2ccccc2C1=O [7c, 2-(propynyloxymethyl)-amino-1,4-naphthoquinone]",87.73 ± 4.3,,,no important effect,13±1.0,increased,,20.15 ± 2.11,1.5 ± 0.5

# Reference: publication PMC7661526, “Antibiofilm effects of N,O-acetals derived from 2-amino-1,4-naphthoquinone are associated with downregulation of important global virulence regulators in methicillin-resistant Staphylococcus aureus” (Scientific Reports, 2020)
